From US20130172294A1, “Treatment with VB-201” (Vascular Biogenics Ltd., priority 2010, published 2013)

Experiment: Effect of food and capsule coating on single-dose pharmacokinetics (Example 3)
Format: in vivo, human
Method: Determination of VB-201 concentrations in plasma was performed using an HPLC-MS/MS (high performance liquid chromatography with tandem mass spectrometric detection) assay. Calibration was for a range of from 5 to 500 ng/ml for low doses and from 50 to 5000 ng/ml for high doses. Pharmacokinetic parameters were estimated by using a non-compartmental method, except for the AUC (area under curve), which was determined using a (log-) trapezoidal rule as the area above the previous trough level. All calculations were made using PKWizard (developed by Russell Barbare and Dr. […] was validated against WinNonlin (Pharsight Corp.), which is an FDA-recognized validated program. Pharmacokinetic parameters were calculated by the program according to standard methods used in the art. Calculation of the pharmacokinetic characteristics was based on the actual blood sampling time (in hours), with predose times set to zero. Concentrations below the LLOQ (lower limit of quantification; 4.974 ng/ml) were assumed to be zero. The effects of food on the pharmacokinetics of enteric coated and non-coated VB-201 capsules were investigated in a double-blind, placebo-controlled study in healthy subjects. Cohorts of six subjects each received a single dose of 10 mg, 2×10 mg or 20 mg VB-201 in the morning. […] Subjects were randomly assigned to receive the drug when fed (i.e., following completion of a standardized high fat meal) or when fasting (i.e., fasting for at least 10 hours). […] Subjects then underwent an additional 8 day washout period, after which subjects underwent a second administration. Subjects who received the first administration when fasting, received the second administration when fed, and subjects who received the first administration when fed, received the second administration when fasting. Following the second administration, blood samples were taken at the same times post-dose as previously. Concentration-time curves were constructed for time periods of up to 144 hours. Pharmacokinetic parameters were calculated based on data for the first 24 hours and for the whole 144 hours. […] Nevertheless, parameters were also calculated from data covering the first 24 hours in order to compare parameters with previous studies. Statistical comparisons of doses, coated vs. non-coated capsules, feeding vs. fasting and coating-feeding interactions were performed using a mixed model ANOVA in an SAS 8.02 software package (SAS Institute, Cary, N.C.) using PROC MIXED

Q: Which results are given for `CCCCCCCCCCCCCCCCOCC(COP(=O)([O-])OCC[N+](C)(C)C)OCCCCC(=O)O` (stereo not shown) [VB-201, 1-hexadecyl-2-(4′-carboxybutyl)-glycerol-3-phosphocholine]?
A: AUC (0-infinity, from 24) (1 × 20 mg non-coated fasting): 16958 ng·h/mL; AUC (0-infinity, from 144) (1 × 20 mg non-coated fasting): 29478 ng·h/mL; AUC(0-24) (1 × 20 mg non-coated fasting): 10013 ng·h/mL; AUC(0-144) (1 × 20 mg non-coated fasting): 26650 ng·h/mL; AUMC (0-24) (1 × 20 mg non-coated fasting): 122207 hours^2*ng/ml; AUMC (0-infinity) (1 × 20 mg non-coated fasting): 1763607 hours^2*ng/ml; Cl/F (0-24) (1 × 20 mg non-coated fasting): 1.301 L/h; Cl/F (from 144) (1 × 20 mg non-coated fasting): 0.702 L/h; Cmax (1 × 20 mg non-coated fasting): 660.4 ng/mL; Ke (from 24) (1 × 20 mg non-coated fasting): 0.0486 h⁻¹; Ke (from 144) (1 × 20 mg non-coated fasting): 0.0166 h⁻¹; MTT (0-24) (1 × 20 mg non-coated fasting): 12.0 h; MTT (from 144) (1 × 20 mg non-coated fasting): 61.0 h; T1/2 (from 24) (1 × 20 mg non-coated fasting): 14.6 h; T1/2 (from 144) (1 × 20 mg non-coated fasting): 43.5 h; Tmax (1 × 20 mg non-coated fasting): 8.33 h; AUC (0-infinity, from 24) (1 × 20 mg non-coated fed): 23552 ng·h/mL; AUC (0-infinity, from 144) (1 × 20 mg non-coated fed): 26424 ng·h/mL; AUC(0-24) (1 × 20 mg non-coated fed): 8334 ng·h/mL; AUC(0-144) (1 × 20 mg non-coated fed): 24282 ng·h/mL; AUMC (0-24) (1 × 20 mg non-coated fed): 111005 hours^2*ng/ml; AUMC (0-infinity) (1 × 20 mg non-coated fed): 1555946 hours^2*ng/ml; Cl/F (0-24) (1 × 20 mg non-coated fed): 1.197 L/h; Cl/F (from 144) (1 × 20 mg non-coated fed): 0.852 L/h; Cmax (1 × 20 mg non-coated fed): 546.4 ng/mL; Ke (from 24) (1 × 20 mg non-coated fed): 0.0332 h⁻¹; Ke (from 144) (1 × 20 mg non-coated fed): 0.0193 h⁻¹; MTT (0-24) (1 × 20 mg non-coated fed): 13.0 h; MTT (from 144) (1 × 20 mg non-coated fed): 57.2 h; T1/2 (from 24) (1 × 20 mg non-coated fed): 25.2 h; T1/2 (from 144) (1 × 20 mg non-coated fed): 36.4 h; Tmax (1 × 20 mg non-coated fed): 8.17 h; AUC (0-infinity, from 24) (2 × 10 mg coated fasting): 10388 ng·h/mL; AUC (0-infinity, from 144) (2 × 10 mg coated fasting): 24950 ng·h/mL; AUC(0-24) (2 × 10 mg coated fasting): 6427 ng·h/mL; AUC(0-144) (2 × 10 mg coated fasting): 20269 ng·h/mL; AUMC (0-24) (2 × 10 mg coated fasting): 83132 hours^2*ng/ml; AUMC (0-infinity) (2 × 10 mg coated fasting): 2246560 hours^2*ng/ml; Cl/F (0-24) (2 × 10 mg coated fasting): 3.318 L/h; Cl/F (from 144) (2 × 10 mg coated fasting): 1.815 L/h; Cmax (2 × 10 mg coated fasting): 424.6 ng/mL; Ke (from 24) (2 × 10 mg coated fasting): 0.0493 h⁻¹; Ke (from 144) (2 × 10 mg coated fasting): 0.0174 h⁻¹; MTT (0-24) (2 × 10 mg coated fasting): 12.9 h; MTT (from 144) (2 × 10 mg coated fasting): 69.2 h; T1/2 (from 24) (2 × 10 mg coated fasting): 14.9 h; T1/2 (from 144) (2 × 10 mg coated fasting): 48.0 h; Tmax (2 × 10 mg coated fasting): 9.67 h; AUC (0-infinity, from 24) (2 × 10 mg coated fed): 15799 ng·h/mL; AUC (0-infinity, from 144) (2 × 10 mg coated fed): 24463 ng·h/mL; AUC(0-24) (2 × 10 mg coated fed): 5008 ng·h/mL; AUC(0-144) (2 × 10 mg coated fed): 21417 ng·h/mL; AUMC (0-24) (2 × 10 mg coated fed): 74749 hours^2*ng/ml; AUMC (0-infinity) (2 × 10 mg coated fed): 1794144 hours^2*ng/ml; Cl/F (0-24) (2 × 10 mg coated fed): 2.067 L/h; Cl/F (from 144) (2 × 10 mg coated fed): 1.239 L/h; Cmax (2 × 10 mg coated fed): 422.3 ng/mL; Ke (from 24) (2 × 10 mg coated fed): 0.0427 h⁻¹; Ke (from 144) (2 × 10 mg coated fed): 0.0196 h⁻¹; MTT (0-24) (2 × 10 mg coated fed): 15.1 h; MTT (from 144) (2 × 10 mg coated fed): 64.6 h; T1/2 (from 24) (2 × 10 mg coated fed): 22.8 h; T1/2 (from 144) (2 × 10 mg coated fed): 37.7 h; Tmax (2 × 10 mg coated fed): 14.33 h; AUC (0-infinity, from 24) (2 × 10 mg non-coated fasting): 14643 ng·h/mL; AUC (0-infinity, from 144) (2 × 10 mg non-coated fasting): 25734 ng·h/mL; AUC(0-24) (2 × 10 mg non-coated fasting): 10036 ng·h/mL; AUC(0-144) (2 × 10 mg non-coated fasting): 24028 ng·h/mL; AUMC (0-24) (2 × 10 mg non-coated fasting): 117485 hours^2*ng/ml; AUMC (0-infinity) (2 × 10 mg non-coated fasting): 1319516 hours^2*ng/ml; Cl/F (0-24) (2 × 10 mg non-coated fasting): 1.444 L/h; Cl/F (from 144) (2 × 10 mg non-coated fasting): 0.810 L/h; Cmax (2 × 10 mg non-coated fasting): 724.4 ng/mL; Ke (from 24) (2 × 10 mg non-coated fasting): 0.0606 h⁻¹; Ke (from 144) (2 × 10 mg non-coated fasting): 0.0195 h⁻¹; MTT (0-24) (2 × 10 mg non-coated fasting): 11.7 h; MTT (from 144) (2 × 10 mg non-coated fasting): 51.5 h; T1/2 (from 24) (2 × 10 mg non-coated fasting): 11.7 h; T1/2 (from 144) (2 × 10 mg non-coated fasting): 36.3 h; Tmax (2 × 10 mg non-coated fasting): 8.67 h; AUC (0-infinity, from 24) (2 × 10 mg non-coated fed): 15305 ng·h/mL; AUC (0-infinity, from 144) (2 × 10 mg non-coated fed): 25822 ng·h/mL; AUC(0-24) (2 × 10 mg non-coated fed): 8708 ng·h/mL; AUC(0-144) (2 × 10 mg non-coated fed): 24104 ng·h/mL; AUMC (0-24) (2 × 10 mg non-coated fed): 109878 hours^2*ng/ml; AUMC (0-infinity) (2 × 10 mg non-coated fed): 1409500 hours^2*ng/ml; Cl/F (0-24) (2 × 10 mg non-coated fed): 1.394 L/h; Cl/F (from 144) (2 × 10 mg non-coated fed): 0.802 L/h; Cmax (2 × 10 mg non-coated fed): 652.1 ng/mL; Ke (from 24) (2 × 10 mg non-coated fed): 0.0528 h⁻¹; Ke (from 144) (2 × 10 mg non-coated fed): 0.0195 h⁻¹; MTT (0-24) (2 × 10 mg non-coated fed): 12.7 h; MTT (from 144) (2 × 10 mg non-coated fed): 54.3 h; T1/2 (from 24) (2 × 10 mg non-coated fed): 15.4 h; T1/2 (from 144) (2 × 10 mg non-coated fed): 36.1 h; Tmax (2 × 10 mg non-coated fed): 8.50 h; effect of enteric coatings on Tmax (enteric coated vs non-coated): increased
